Measurements taken from patent publication US10947241B2, “Phenyl phthalazine derivative, method for the preparation thereof, and pharmaceutical composition comprising the same” (Seoul National University Hospital, priority 2016, dated 2021).
Structures can show the parent of a compound that is named as a salt.

Biological target: hResistin (Homo sapiens (Human), UniProt Q9HD89)
Test: Evaluation of the ability to inhibit TNF-α secretion by hResistin (THP-1 cells, ELISA)
Format: cell-based
Details: for inhibition at 5 µM: inhibition of TNF-α secretion by hResistin in THP-1 cells; for IC50: THP-1 human monocyte cell line, human recombinant Resistin
Experimental: Experimental Example: Evaluation of the Ability to Inhibit TNF-α Secretion by hResistin
Using THP-1 (human monocyte) cell line and ELISA system, the abilities to inhibit TNF-α secretion by hResistin (IC50) were evaluated for the compounds prepared in the above examples. The compounds target hResistin, and the abilities of the compounds to inhibit TNF-α secretion by human recombinant Resistin in human monocyte (THP-1) were evaluated. The abilities to inhibit TNF-α secretion were assessed by ELISA quantifying the amount of antibody with the enzyme as a marker using an antigen-antibody reaction.
Specifically, the cultured cells were spun down at 1,500 rpm for 2 minutes, the supernatant was removed and then the cells were re-suspended in 10 mL of complete RPMI-1640 medium. After counting the number of cells using Luna™ Automated Cell Counter, cells were plated into 96-well assay plates at 50 μL per well. The cells cultured for 24 hours were treated with the test substances in accordance with the concentration for 1 hour, and then the supernatant was collected and subjected to ELISA assay. In the ELISA assay, the absorbance at 450 nm (OD450 nm) was measured using Flexstation 3. The ability of each test substance to inhibit TNF-α secretion (IC50) and its inhibition at a concentration of 5 uM are shown in Table 1 below.

Chain of hResistin (Q9HD89 19-108): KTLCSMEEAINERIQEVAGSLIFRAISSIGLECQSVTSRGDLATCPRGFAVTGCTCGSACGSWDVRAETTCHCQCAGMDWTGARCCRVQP

Compound | inhibition at 5 µM [%] | IC50 [nM]
CNC1CCN(c2nnc(-c3ccc(Cl)cc3)c3ccc(Cl)cc23)C1 (stereo not shown) [Example 89, 1-(7-chloro-4-(4-chlorophenyl)phthalazin-1-yl)-N-methylpyrrolidin-3-amine hydrochloride] | 77.9 | 1800
CNCCN(C)c1nnc(-c2ccc(Cl)cc2)c2ccccc12 [Example 53, N1-(4-(4-chlorophenyl)phthalazin-1-yl)-N1,N2-dimethylethane-1,2-diamine] | 8.7 | –
CC(C)(C(=O)O)N1CCN(c2nnc(-c3ccc(Cl)cc3)c3ccccc23)CC1 [Example 82, 2-(4-(4-(4-chlorophenyl)phthalazin-1-yl)piperazin-1-yl)-2-methylpropanoic acid] | 50 | –
NC(CCC(=O)O)C(=O)N1CCN(c2nnc(-c3ccc(Cl)cc3)c3ccccc23)CC1 (stereo not shown) [Example 86, 4-amino-5-(4-(4-(4-chlorophenyl)phthalazin-1-yl)piperazin-1-yl)-5-oxopentanoic acid hydrochloride] | – | 18000
O=S(=O)(C1CCCC1)N1CCN(c2nnc(-c3ccc(Cl)cc3)c3ccccc23)CC1 [Example 34, 1-(4-chlorophenyl)-4-(4-(cyclopentylsulfonyl)piperazin-1-yl)phthalazine] | 64.9 | 3000
Clc1ccc(-c2nnc(OC3CCCNC3)c3ccccc23)cc1 (stereo not shown) [Example 96, 1-(4-chlorophenyl)-4-(piperidin-3-yloxy)phthalazine hydrochloride] | 58.9 | –
N[C@@H](Cc1c[nH]cn1)C(=O)N1CCN(c2nnc(-c3ccc(Cl)cc3)c3ccccc23)CC1 [Example 76, (S)-2-amino-1-(4-(4-(4-chlorophenyl)phthalazin-1-yl)piperazin-1-yl)-3-(1H-imidazol-4-yl)propan-1-one dihydrochloride] | 28.9 | –
NCCN1CCN(c2nnc(-c3ccc(Cl)cc3)c3ccccc23)CC1 [Example 38, 2-(4-(4-(4-chlorophenyl)phthalazin-1-yl)piperazin-1-yl)ethanamine hydrochloride] | 69.5 | 7900
CNC1CCN(c2nnc(Oc3ccc(Cl)cc3)c3ccccc23)C1 (stereo not shown) [Example 93, 1-(4-(4-chlorophenoxy)phthalazin-1-yl)-N-methylpyrrolidin-3-amine hydrochloride] | 67.6 | 1900
CC(C)[C@H](N)C(=O)N1CCN(c2nnc(-c3ccc(Cl)cc3)c3ccccc23)CC1(C)C [Example 69, (S)-2-amino-1-(4-(4-(4-chlorophenyl)phthalazin-1-yl)-2,2-dimethylpiperazin-1-yl)-3-methylbutan-1-one hydrochloride] | 16.1 | –
C[C@@H]1CN(c2nnc(-c3ccc(Cl)cc3)c3ccccc23)CCN1C(=O)C(C)(C)N [Example 70, (R)-2-amino-1-(4-(4-(4-chlorophenyl)phthalazin-1-yl)-2-methylpiperazin-1-yl)-2-methylpropan-1-one hydrochloride] | 61.4 | –
NC1(C(=O)N2CCN(c3nnc(-c4ccc(Cl)cc4)c4ccccc34)CC2)CCCC1 [Example 58, (1-aminocyclopentyl)(4-(4-(4-chlorophenyl)phthalazin-1-yl)piperazin-1-yl)methanone hydrochloride] | 77.3 | 2900
CC(C)(N)C(=O)N1CCN(c2nnc(-c3ccc(C(F)(F)F)cc3)c3ccccc23)CC1 [Example 102, 2-amino-2-methyl-1-(4-(4-(4-(trifluoromethyl)phenyl)phthalazin-1-yl)piperazin-1-yl)propan-1-one hydrochloride] | 37 | –
CC(C)(N)C(=O)N1CC=C(c2nnc(-c3ccc(Cl)cc3)c3ccccc23)CC1 [Example 44, 2-amino-1-(4-(4-(4-chlorophenyl)phthalazin-1-yl)-5,6-dihydropyridin-1(2H)-yl)-2-methylpropan-1-one hydrochloride] | 50.5 | –
C[C@@H](N)C(=O)N1CCN(c2nnc(-c3ccc(Cl)cc3)c3ccccc23)CC1 [Example 36, (R)-2-amino-1-(4-(4-(4-chlorophenyl)phthalazin-1-yl)piperazin-1-yl)propan-1-one hydrochloride] | 75.8 | 2500
N[C@@H](COCc1ccccc1)C(=O)N1CCN(c2nnc(-c3ccc(Cl)cc3)c3ccccc23)CC1 [Example 79, (S)-2-amino-3-(benzyloxy)-1-(4-(4-(4-chlorophenyl)phthalazin-1-yl)piperazin-1-yl)propan-1-one hydrochloride] | 65.4 | –
CCNC1CCN(c2nnc(-c3ccc(Cl)cc3)c3ccccc23)C1 (stereo not shown) [Example 54, 1-(4-(4-chlorophenyl)phthalazin-1-yl)-N-ethylpyrrolidin-3-amine hydrochloride] | 70 | 1900
CC[C@H](C)[C@H](N)C(=O)N1CCN(c2nnc(-c3ccc(Cl)cc3)c3ccccc23)CC1 [Example 60, (2S,3S)-2-amino-1-(4-(4-(4-chlorophenyl)phthalazin-1-yl)piperazin-1-yl)-3-methylpentan-1-one hydrochloride] | 91.2 | 1900

Compound | inhibition at 5 µM [%] | IC50 [nM]
O=C(C1CC1)N1CCN(c2nnc(-c3ccc(Cl)cc3)c3ccccc23)CC1 [Example 10, (4-(4-(4-chlorophenyl)phthalazin-1-yl)piperazin-1-yl)(cyclopropyl)methanone] | – | 1200
CCOC(=O)CN1CCN(c2nnc(-c3ccc(Cl)cc3)c3ccccc23)CC1 [Example 65, ethyl 2-(4-(4-(4-chlorophenyl)phthalazin-1-yl)piperazin-1-yl)acetate] | 2.4 | –
CC(C)(C)C(N)C(=O)N1CCN(c2nnc(-c3ccc(Cl)cc3)c3ccccc23)CC1 (stereo not shown) [Example 77, 2-amino-1-(4-(4-(4-chlorophenyl)phthalazin-1-yl)piperazin-1-yl)-3,3-dimethylbutan-1-one hydrochloride] | 46.7 | –
NC(=O)CC(N)C(=O)N1CCN(c2nnc(-c3ccc(Cl)cc3)c3ccccc23)CC1 (stereo not shown) [Example 85, 3-amino-4-(4-(4-(4-chlorophenyl)phthalazin-1-yl)piperazin-1-yl)-4-oxobutanamide hydrochloride] | 45.3 | 5400
CNC1CCN(c2nnc(-c3ccc(Cl)cc3)c3cc(F)ccc23)C1 (stereo not shown) [Example 91, 1-(4-(4-chlorophenyl)-6-fluorophthalazin-1-yl)-N-methylpyrrolidin-3-amine hydrochloride] | 76.6 | 600
CC(C)[C@H](N)C(=O)N1CCN(c2nnc(-c3ccc(Cl)cc3)c3ccccc23)CC1 [Example 47, (S)-2-amino-1-(4-(4-(4-chlorophenyl)phthalazin-1-yl)piperazin-1-yl)-3-methylbutan-1-one hydrochloride] | 87.1 | 700
O=S(=O)(C1CC1)N1CCN(c2nnc(-c3ccc(Cl)cc3)c3ccccc23)CC1 [Example 37, 1-(4-chlorophenyl)-4-(4-(cyclopropylsulfonyl)piperazin-1-yl)phthalazine] | 52.9 | –
CN[C@@H]1CCCN(c2nnc(-c3ccc(Cl)cc3)c3ccccc23)C1 [Example 57, (R)-1-(4-(4-chlorophenyl)phthalazin-1-yl)-N-methylpiperidin-3-amine hydrochloride] | 92.8 | 1000
CC(=O)N1CCN(c2nnc(-c3ccc(C)cc3)c3ccccc23)CC1 [Example 2, 1-(4-(4-p-tolylphthalazin-1-yl)piperazin-1-yl)ethanone] | – | 5000
CNC1CCN(c2nnc(-c3ccc(Cl)cc3)c3ccccc23)C1 (stereo not shown) [Example 46, 1-(4-(4-chlorophenyl)phthalazin-1-yl)-N-methylpyrrolidin-3-amine hydrochloride] | 97.8 | 300
Clc1ccc(-c2nnc(N3CCC(N4CCOCC4)CC3)c3ccccc23)cc1 [Example 8, 4-(1-(4-(4-chlorophenyl)phthalazin-1-yl)piperidin-4-yl)morpholine] | 54.4 | –
CC(=O)NC1CCN(c2nnc(-c3ccc(Cl)cc3)c3ccccc23)C1 (stereo not shown) [Example 45, N-(1-(4-(4-chlorophenyl)phthalazin-1-yl)pyrrolidin-3-yl)acetamide] | 77.6 | 1600
Clc1ccc(-c2nnc(N3CCCN(Cc4ccccc4)CC3)c3ccccc23)cc1 [Example 67, 1-(4-benzyl-1,4-diazepan-1-yl)-4-(4-chlorophenyl)phthalazine] | 38.9 | –
CC(C)(N)C(=O)N1CCN(c2nnc(Oc3ccc(Cl)cc3)c3ccccc23)CC1 [Example 94, 2-amino-1-(4-(4-(4-chlorophenoxy)phthalazin-1-yl)piperazin-1-yl)-2-methylpropan-1-one hydrochloride] | 29.9 | –
Clc1ccc(-c2nnc(N3CC4CCNC4C3)c3ccccc23)cc1 (stereo not shown) [Example 88, 1-(4-chlorophenyl)-4-(hexahydropyrrolo[3,4-b]pyrrol-5(1H)-yl)phthalazine hydrochloride] | – | 900
CNC1CCN(c2nnc(Cc3ccc(Cl)cc3)c3ccccc23)C1 (stereo not shown) [Example 98, 1-(4-(4-chlorobenzyl)phthalazin-1-yl)-N-methylpyrrolidin-3-amine hydrochloride] | 3.9 | –
NC(=O)CCC(N)C(=O)N1CCN(c2nnc(-c3ccc(Cl)cc3)c3ccccc23)CC1 (stereo not shown) [Example 84, 4-amino-5-(4-(4-(4-chlorophenyl)phthalazin-1-yl)piperazin-1-yl)-5-oxopentanamide hydrochloride] | 12.6 | –
